According to ChEMBL document CHEMBL1136561, “Thiophene-based vitronectin receptor antagonists” (Bioorg Med Chem Lett, 2003):

Columns and labels:
[1] = target: Integrin alpha-IIb/beta-3 (Homo sapiens, UniProt P05106+P08514); test: Inhibition of fibrinogen binding to integrin alphaIIb-beta3; assay type: protein-complex assay
Integrin alpha-V/beta-3 [2] = target: T1, Integrin alpha-V/beta-3 (Homo sapiens, UniProt P05106+P06756); test: Inhibition of fibrinogen binding to integrin alphaV-beta3 receptor; assay type: protein-complex assay
Integrin alpha-V/beta-3 [3] = target: T1, Integrin alpha-V/beta-3; test: Inhibition of fibrinogen binding to K562 cells expressing integrin alphaV-beta3; assay type: cell-based
[4] = target: Integrin alpha-V/beta-3 and alpha-IIb/beta 3 (Homo sapiens) (UniProt P05106+P06756+P08514); test: Selectivity ratio for alphaIIb-beta3 over alphaV-beta3 integrins; assay type: protein assay
Integrin alpha-V/beta-5 = Integrin alpha-V/beta-5 (Homo sapiens, UniProt P06756+P18084); test: Inhibition of vitronectin binding to HT-29 cells expressing integrin alphaV-beta5; assay type: cell-based
[5] = target: Fibronectin receptor (Integrin alpha-5/beta-1 and alpha-V/beta-3) (Homo sapiens) (UniProt P05106+P05556+P06756+P08648); test: Selectivity ratio for alpha5-beta1 and alphaV-beta3 integrins; assay type: protein-complex assay
Chain of Fibronectin receptor (Integrin alpha-5/beta-1 and alpha-V/beta-3) (Homo sapiens) (P05106 whole entry, looked up): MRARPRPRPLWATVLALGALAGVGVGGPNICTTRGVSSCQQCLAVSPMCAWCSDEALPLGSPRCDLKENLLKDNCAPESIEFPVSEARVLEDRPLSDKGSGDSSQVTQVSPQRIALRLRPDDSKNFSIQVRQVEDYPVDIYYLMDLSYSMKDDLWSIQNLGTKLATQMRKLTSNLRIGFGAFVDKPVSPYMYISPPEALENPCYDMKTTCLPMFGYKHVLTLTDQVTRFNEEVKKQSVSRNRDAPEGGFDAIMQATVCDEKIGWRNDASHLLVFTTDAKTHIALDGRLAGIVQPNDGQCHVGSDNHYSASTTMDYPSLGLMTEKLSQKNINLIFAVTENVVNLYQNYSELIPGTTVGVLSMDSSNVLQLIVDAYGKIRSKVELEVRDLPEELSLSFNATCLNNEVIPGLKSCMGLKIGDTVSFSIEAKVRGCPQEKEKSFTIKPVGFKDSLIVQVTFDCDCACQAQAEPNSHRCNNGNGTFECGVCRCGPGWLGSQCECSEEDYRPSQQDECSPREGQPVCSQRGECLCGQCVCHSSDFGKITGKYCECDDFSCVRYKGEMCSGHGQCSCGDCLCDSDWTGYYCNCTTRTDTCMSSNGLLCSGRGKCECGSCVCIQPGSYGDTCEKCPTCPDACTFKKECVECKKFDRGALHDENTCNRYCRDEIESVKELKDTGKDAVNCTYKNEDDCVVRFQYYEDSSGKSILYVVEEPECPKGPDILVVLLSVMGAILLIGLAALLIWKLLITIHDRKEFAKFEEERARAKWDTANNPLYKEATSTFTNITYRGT
Chain of Fibronectin receptor (Integrin alpha-5/beta-1 and alpha-V/beta-3) (Homo sapiens) (P05556 whole entry, looked up): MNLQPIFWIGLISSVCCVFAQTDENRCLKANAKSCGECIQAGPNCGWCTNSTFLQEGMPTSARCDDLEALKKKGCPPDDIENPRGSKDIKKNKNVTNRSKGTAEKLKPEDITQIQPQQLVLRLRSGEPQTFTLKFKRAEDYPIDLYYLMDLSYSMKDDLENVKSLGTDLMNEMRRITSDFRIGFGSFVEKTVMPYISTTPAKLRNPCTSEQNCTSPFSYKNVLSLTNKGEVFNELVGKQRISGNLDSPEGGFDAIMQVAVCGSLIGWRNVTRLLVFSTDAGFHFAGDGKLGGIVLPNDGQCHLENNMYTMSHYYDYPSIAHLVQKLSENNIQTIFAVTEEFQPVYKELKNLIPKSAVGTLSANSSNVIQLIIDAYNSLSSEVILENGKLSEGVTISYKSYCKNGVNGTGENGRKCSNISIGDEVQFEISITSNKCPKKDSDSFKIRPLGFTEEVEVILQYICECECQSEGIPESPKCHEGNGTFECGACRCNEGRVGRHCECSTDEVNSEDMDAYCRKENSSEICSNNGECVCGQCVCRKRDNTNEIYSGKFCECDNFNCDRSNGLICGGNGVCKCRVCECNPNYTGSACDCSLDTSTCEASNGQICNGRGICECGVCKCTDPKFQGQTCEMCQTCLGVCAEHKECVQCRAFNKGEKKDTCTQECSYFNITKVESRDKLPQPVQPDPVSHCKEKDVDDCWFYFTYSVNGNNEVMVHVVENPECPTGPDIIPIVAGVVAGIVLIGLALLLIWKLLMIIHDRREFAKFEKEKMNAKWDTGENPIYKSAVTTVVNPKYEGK
Chain of Fibronectin receptor (Integrin alpha-5/beta-1 and alpha-V/beta-3) (Homo sapiens) (P06756 whole entry, looked up): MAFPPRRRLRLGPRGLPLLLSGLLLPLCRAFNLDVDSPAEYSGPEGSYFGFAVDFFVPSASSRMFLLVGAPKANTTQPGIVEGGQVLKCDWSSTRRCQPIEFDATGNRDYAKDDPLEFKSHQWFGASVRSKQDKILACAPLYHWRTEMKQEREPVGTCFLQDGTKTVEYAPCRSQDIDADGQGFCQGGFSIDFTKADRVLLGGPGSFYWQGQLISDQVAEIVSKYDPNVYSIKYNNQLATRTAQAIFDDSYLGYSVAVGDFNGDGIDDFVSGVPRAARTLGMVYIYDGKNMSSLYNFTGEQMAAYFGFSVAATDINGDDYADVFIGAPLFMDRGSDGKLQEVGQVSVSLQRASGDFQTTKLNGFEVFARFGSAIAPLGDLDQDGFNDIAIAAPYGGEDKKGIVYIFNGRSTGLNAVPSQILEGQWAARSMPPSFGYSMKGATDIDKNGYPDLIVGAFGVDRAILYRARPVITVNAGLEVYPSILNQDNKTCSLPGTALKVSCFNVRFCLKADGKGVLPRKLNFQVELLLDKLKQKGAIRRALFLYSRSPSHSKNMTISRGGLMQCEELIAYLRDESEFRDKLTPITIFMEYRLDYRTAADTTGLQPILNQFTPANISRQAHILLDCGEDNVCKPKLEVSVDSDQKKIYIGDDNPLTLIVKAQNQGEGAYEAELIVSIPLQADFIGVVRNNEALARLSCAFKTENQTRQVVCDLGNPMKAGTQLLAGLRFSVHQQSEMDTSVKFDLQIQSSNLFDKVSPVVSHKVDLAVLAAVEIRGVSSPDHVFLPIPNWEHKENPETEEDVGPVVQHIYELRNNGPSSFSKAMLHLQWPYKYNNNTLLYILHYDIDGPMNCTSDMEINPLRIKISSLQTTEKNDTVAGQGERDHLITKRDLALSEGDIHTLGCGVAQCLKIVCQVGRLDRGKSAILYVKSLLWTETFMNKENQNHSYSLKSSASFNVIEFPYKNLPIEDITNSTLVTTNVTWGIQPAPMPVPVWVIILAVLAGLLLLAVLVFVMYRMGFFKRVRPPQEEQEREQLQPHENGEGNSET
Chain of Fibronectin receptor (Integrin alpha-5/beta-1 and alpha-V/beta-3) (Homo sapiens) (P08648 whole entry, looked up): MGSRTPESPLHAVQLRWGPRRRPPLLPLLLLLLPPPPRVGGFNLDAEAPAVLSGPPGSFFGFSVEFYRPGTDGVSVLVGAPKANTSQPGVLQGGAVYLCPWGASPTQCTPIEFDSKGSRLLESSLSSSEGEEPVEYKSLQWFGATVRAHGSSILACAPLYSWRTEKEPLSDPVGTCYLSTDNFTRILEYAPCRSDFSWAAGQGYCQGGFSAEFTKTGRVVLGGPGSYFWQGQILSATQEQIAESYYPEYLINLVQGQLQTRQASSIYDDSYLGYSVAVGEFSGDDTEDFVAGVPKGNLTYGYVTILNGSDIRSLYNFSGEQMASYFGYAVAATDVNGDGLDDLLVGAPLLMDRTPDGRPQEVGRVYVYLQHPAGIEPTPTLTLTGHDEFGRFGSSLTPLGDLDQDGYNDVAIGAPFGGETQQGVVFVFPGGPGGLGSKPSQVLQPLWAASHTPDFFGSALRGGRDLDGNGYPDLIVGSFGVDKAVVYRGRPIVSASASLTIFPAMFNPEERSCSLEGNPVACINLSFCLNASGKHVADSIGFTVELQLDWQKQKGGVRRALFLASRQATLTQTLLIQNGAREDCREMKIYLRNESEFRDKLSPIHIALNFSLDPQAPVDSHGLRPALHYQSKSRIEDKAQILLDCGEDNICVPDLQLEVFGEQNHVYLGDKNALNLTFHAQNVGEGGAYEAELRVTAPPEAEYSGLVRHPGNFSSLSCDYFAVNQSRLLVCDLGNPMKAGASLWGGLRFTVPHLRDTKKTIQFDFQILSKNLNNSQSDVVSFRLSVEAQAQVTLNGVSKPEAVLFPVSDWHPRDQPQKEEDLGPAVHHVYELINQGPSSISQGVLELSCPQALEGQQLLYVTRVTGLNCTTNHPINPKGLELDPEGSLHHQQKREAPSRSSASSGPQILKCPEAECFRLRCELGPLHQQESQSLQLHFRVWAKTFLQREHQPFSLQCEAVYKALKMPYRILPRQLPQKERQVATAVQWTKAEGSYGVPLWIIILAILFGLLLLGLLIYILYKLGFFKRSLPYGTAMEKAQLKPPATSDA

Homo sapiens = species: Homo sapiens; test: Selectivity ratio for alphaV-beta5 over alphaV-beta3 integrins
Integrin alpha-5/beta-1 = Integrin alpha-5/beta-1 (Homo sapiens, UniProt P05556+P08648); test: Inhibition of fibronectin binding to K562 cells expressing integrin alpha5-beta1
Gallus gallus [6] = species: Gallus gallus; test: Inhibition of VEGF-mediated angiogenesis in the chick CAM assay expressed as capillary formation at 17 ug/mesh conc.; assay type: functional
Gallus gallus [7] = species: Gallus gallus; test: Inhibition of VEGF-mediated angiogenesis in the chick CAM assay expressed as capillary formation at 33 ug/mesh conc.; assay type: functional
Gallus gallus [8] = species: Gallus gallus; test: Inhibition of VEGF-mediated angiogenesis in the chick CAM assay expressed as capillary formation at 3 ug/mesh conc.; assay type: functional

| Compound | IC50 [1] | IC50 (Integrin alpha-V/beta-3 [2]) | IC50 (Integrin alpha-V/beta-3 [3]) | Ratio [4] | IC50 (Integrin alpha-V/beta-5) | Ratio [5] | Ratio (Homo sapiens) | IC50 (Integrin alpha-5/beta-1) | Inhibition (Gallus gallus [6]) | Inhibition (Gallus gallus [7]) | Inhibition (Gallus gallus [8]) |
| --- | --- | --- | --- | --- | --- | --- | --- | --- | --- | --- | --- |
| N=C(N)Nc1ccc(-c2ccc(C(=O)NC[C@H](NS(=O)(=O)c3ccccc3)C(=O)O)s2)cc1 | 0.0013 nM | 71.5 nM | 3790 nM | < 0.1 |  |  |  |  |  |  |  |
| Cc1cc(C)c(S(=O)(=O)N[C@@H](CNC(=O)c2ccc(-c3cccc(NC(=N)N)c3)s2)C(=O)O)c(C)c1 | 0.31 nM | 1.4 nM | 0.00092 nM | 300 | 2.5 nM | 28300 | 2720 | 26 nM |  |  |  |
| N=C(N)NCc1ccccc1-c1ccc(C(=O)NC[C@H](NS(=O)(=O)c2ccccc2)C(=O)O)s1 | 0.0058 nM | 0.04 nM | 21 nM | < 0.1 |  |  |  |  |  |  |  |
| N=C(N)NCc1cccc(-c2ccc(C(=O)NC[C@H](NS(=O)(=O)c3ccccc3)C(=O)O)s2)c1.O=C(O)C(F)(F)F | 0.34 nM | 2.2 nM | 0.74 nM | < 0.5 |  | 864 | 97 |  | 42% | 57% | 29% |
| Cc1cc(C)c(S(=O)(=O)N[C@@H](CNC(=O)c2ccc(-c3cccc(CN=C(N)N)c3)s2)C(=O)O)c(C)c1.O=C(O)C(F)(F)F | 0.16 nM | 3.4 nM | 11 nM | < 0.1 |  | 6 | 1 |  | 91% | 95% | 65% |

Further molecules by falling IC50 [1], results first:

| IC50 [1] | IC50 (Integrin alpha-V/beta-3 [2]) | IC50 (Integrin alpha-V/beta-3 [3]) | Ratio [4] | IC50 (Integrin alpha-V/beta-5) | Ratio [5] | Ratio (Homo sapiens) | IC50 (Integrin alpha-5/beta-1) | Compound | Inhibition (Gallus gallus [6]) | Inhibition (Gallus gallus [7]) | Inhibition (Gallus gallus [8]) |
| --- | --- | --- | --- | --- | --- | --- | --- | --- | --- | --- | --- |
| 6.1 nM | 2.1 nM | 730 nM | < 0.1 |  |  |  |  | N=C(N)NCc1ccc(-c2ccc(C(=O)NC[C@H](NS(=O)(=O)c3ccccc3)C(=O)O)s2)cc1 |  |  |  |
| 0.59 nM | 1 nM | 0.19 nM | 3 |  | 500 | 33 | 95 nM | N=C(N)Nc1cccc(-c2ccc(C(=O)NC[C@H](NS(=O)(=O)c3ccccc3)C(=O)O)s2)c1.O=C(O)C(F)(F)F | 66% | 98% | 29% |
| 0.25 nM | 5500 nM | 5330 nM | < 0.1 |  |  |  |  | N=C(N)Nc1ccccc1-c1ccc(C(=O)NC[C@H](NS(=O)(=O)c2ccccc2)C(=O)O)s1 |  |  |  |
